Assay: In vivo biodistribution of radiolabelled compounds in rats
Source text: In vivo biodistribution of radiolabelled compounds of the invention indicated high uptake in the tissues which have known PBR sites. Tables 2 to 4 show the biodistribution of the compounds of Examples 1-3, in which the iodine atom is radiolabelled, when administered to rats.

CNC(=O)Cc1c(-c2ccc([123I])cc2)nc2ccc(Cl)cn12 [^123-I Example 1]
Biodistribution (% ID/g organ) Adrenals (5 Min): 4.51 ± 1.32 % ID/g organ
Biodistribution (% ID/g organ) Adrenals (15 Min): 7.8 ± 2.16 % ID/g organ
Biodistribution (% ID/g organ) Adrenals (24 Hrs): 0.22 ± 0.09 % ID/g organ
Biodistribution (% ID/g organ) Adrenals (30 Min): 11 ± 2.57 % ID/g organ
Biodistribution (% ID/g organ) Adrenals (60 Min): 11.3 ± 0.87 % ID/g organ
Biodistribution (% ID/g organ) Adrenals (180 Min): 9.84 ± 1.69 % ID/g organ
Biodistribution (% ID/g organ) Adrenals (240 Min): 6.78 ± 1.27 % ID/g organ
Biodistribution (% ID/g organ) Adrenals (360 Min): 5.7 ± 0.15 % ID/g organ
Biodistribution (% ID/g organ) Blood (5 Min): 0.25 ± 0.04 % ID/g organ
Biodistribution (% ID/g organ) Blood (15 Min): 0.16 ± 0.01 % ID/g organ
Biodistribution (% ID/g organ) Blood (24 Hrs): 0.01 ± 0.001 % ID/g organ
Biodistribution (% ID/g organ) Blood (30 Min): 0.12 ± 0.01 % ID/g organ
Biodistribution (% ID/g organ) Blood (60 Min): 0.1 ± 0.01 % ID/g organ
Biodistribution (% ID/g organ) Blood (180 Min): 0.07 ± 0.001 % ID/g organ
Biodistribution (% ID/g organ) Blood (240 Min): 0.06 ± 0.01 % ID/g organ
Biodistribution (% ID/g organ) Blood (360 Min): 0.05 ± 0.001 % ID/g organ
Biodistribution (% ID/g organ) Brain (5 Min): 0.11 ± 0.02 % ID/g organ
Biodistribution (% ID/g organ) Brain (15 Min): 0.08 ± 0.01 % ID/g organ
Biodistribution (% ID/g organ) Brain (24 Hrs): 0 % ID/g organ
Biodistribution (% ID/g organ) Brain (30 Min): 0.06 ± 0.01 % ID/g organ
Biodistribution (% ID/g organ) Brain (60 Min): 0.04 ± 0.001 % ID/g organ
Biodistribution (% ID/g organ) Brain (180 Min): 0.03 ± 0.001 % ID/g organ
Biodistribution (% ID/g organ) Brain (240 Min): 0.02 ± 0.01 % ID/g organ
Biodistribution (% ID/g organ) Brain (360 Min): 0.02 ± 0.001 % ID/g organ
Biodistribution (% ID/g organ) Heart (5 Min): 3.25 ± 0.58 % ID/g organ
Biodistribution (% ID/g organ) Heart (15 Min): 2.09 ± 0.09 % ID/g organ
Biodistribution (% ID/g organ) Heart (24 Hrs): 0.02 ± 0.001 % ID/g organ
Biodistribution (% ID/g organ) Heart (30 Min): 1.41 ± 0.14 % ID/g organ
Biodistribution (% ID/g organ) Heart (60 Min): 1.07 ± 0.09 % ID/g organ
Biodistribution (% ID/g organ) Heart (180 Min): 0.68 ± 0.09 % ID/g organ
Biodistribution (% ID/g organ) Heart (240 Min): 0.54 ± 0.05 % ID/g organ
Biodistribution (% ID/g organ) Heart (360 Min): 0.38 ± 0.02 % ID/g organ
Biodistribution (% ID/g organ) Kidney (5 Min): 1.8 ± 0.35 % ID/g organ
Biodistribution (% ID/g organ) Kidney (15 Min): 1.66 ± 0.13 % ID/g organ
Biodistribution (% ID/g organ) Kidney (24 Hrs): 0.03 ± 0.001 % ID/g organ
Biodistribution (% ID/g organ) Kidney (30 Min): 1.25 ± 0.09 % ID/g organ
Biodistribution (% ID/g organ) Kidney (60 Min): 0.97 ± 0.07 % ID/g organ
Biodistribution (% ID/g organ) Kidney (180 Min): 0.61 ± 0.02 % ID/g organ
Biodistribution (% ID/g organ) Kidney (240 Min): 0.5 ± 0.07 % ID/g organ
Biodistribution (% ID/g organ) Kidney (360 Min): 0.36 ± 0.01 % ID/g organ
Biodistribution (% ID/g organ) Liver (5 Min): 0.94 ± 0.12 % ID/g organ
Biodistribution (% ID/g organ) Liver (15 Min): 0.7 ± 0.07 % ID/g organ
Biodistribution (% ID/g organ) Liver (24 Hrs): 0.09 ± 0.01 % ID/g organ
Biodistribution (% ID/g organ) Liver (30 Min): 0.59 ± 0.04 % ID/g organ
Biodistribution (% ID/g organ) Liver (60 Min): 0.47 ± 0.02 % ID/g organ
Biodistribution (% ID/g organ) Liver (180 Min): 0.37 ± 0.01 % ID/g organ
Biodistribution (% ID/g organ) Liver (240 Min): 0.33 ± 0.04 % ID/g organ
Biodistribution (% ID/g organ) Liver (360 Min): 0.27 ± 0.01 % ID/g organ
Biodistribution (% ID/g organ) Lungs (5 Min): 2.81 ± 0.49 % ID/g organ
Biodistribution (% ID/g organ) Lungs (15 Min): 1.79 ± 0.18 % ID/g organ
Biodistribution (% ID/g organ) Lungs (24 Hrs): 0.02 ± 0.001 % ID/g organ
Biodistribution (% ID/g organ) Lungs (30 Min): 1.39 ± 0.14 % ID/g organ
Biodistribution (% ID/g organ) Lungs (60 Min): 0.97 ± 0.22 % ID/g organ
Biodistribution (% ID/g organ) Lungs (180 Min): 0.72 ± 0.05 % ID/g organ
Biodistribution (% ID/g organ) Lungs (240 Min): 0.63 ± 0.05 % ID/g organ
Biodistribution (% ID/g organ) Lungs (360 Min): 0.44 ± 0.07 % ID/g organ
Biodistribution (% ID/g organ) Olfactive bulbs (5 Min): 0.2 ± 0.02 % ID/g organ
Biodistribution (% ID/g organ) Olfactive bulbs (15 Min): 0.18 ± 0.03 % ID/g organ
Biodistribution (% ID/g organ) Olfactive bulbs (24 Hrs): 0.01 ± 0.001 % ID/g organ
Biodistribution (% ID/g organ) Olfactive bulbs (30 Min): 0.13 ± 0.02 % ID/g organ
Biodistribution (% ID/g organ) Olfactive bulbs (60 Min): 0.14 ± 0.001 % ID/g organ
Biodistribution (% ID/g organ) Olfactive bulbs (180 Min): 0.09 ± 0.02 % ID/g organ
Biodistribution (% ID/g organ) Olfactive bulbs (240 Min): 0.07 ± 0.001 % ID/g organ
Biodistribution (% ID/g organ) Olfactive bulbs (360 Min): 0.05 ± 0.001 % ID/g organ
Biodistribution (% ID/g organ) Testes (5 Min): 0.14 ± 0.03 % ID/g organ
Biodistribution (% ID/g organ) Testes (15 Min): 0.22 ± 0.06 % ID/g organ
Biodistribution (% ID/g organ) Testes (24 Hrs): 0.01 ± 0.001 % ID/g organ
Biodistribution (% ID/g organ) Testes (30 Min): 0.26 ± 0.05 % ID/g organ
Biodistribution (% ID/g organ) Testes (60 Min): 0.28 ± 0.05 % ID/g organ
Biodistribution (% ID/g organ) Testes (180 Min): 0.25 ± 0.01 % ID/g organ
Biodistribution (% ID/g organ) Testes (240 Min): 0.22 ± 0.03 % ID/g organ
Biodistribution (% ID/g organ) Testes (360 Min): 0.16 ± 0.03 % ID/g organ

Source: patent US6379649B1, “Imidazo(1,2-a)pyridines as peripheral benzodiazepine receptor binding agents” (Australian Nuclear Science & Technology Organisation, priority 1998, dated 2002)
